Laboratory results published in patent US20200207734A1, “HETEROCYCLIC COMPOUND AND USE THEREOF” (Takeda Pharmaceutical Company Limited, priority 2017, published 2020).

Target: T1, human orexin type 2 receptor (Homo sapiens, UniProt O43614)
T1 construct: human orexin type 2 receptor cDNA was inserted into pcDNA3.1(+) plasmid vector (Invitrogen); expressed in transfected cells
T1 sequence (O43614 1-444): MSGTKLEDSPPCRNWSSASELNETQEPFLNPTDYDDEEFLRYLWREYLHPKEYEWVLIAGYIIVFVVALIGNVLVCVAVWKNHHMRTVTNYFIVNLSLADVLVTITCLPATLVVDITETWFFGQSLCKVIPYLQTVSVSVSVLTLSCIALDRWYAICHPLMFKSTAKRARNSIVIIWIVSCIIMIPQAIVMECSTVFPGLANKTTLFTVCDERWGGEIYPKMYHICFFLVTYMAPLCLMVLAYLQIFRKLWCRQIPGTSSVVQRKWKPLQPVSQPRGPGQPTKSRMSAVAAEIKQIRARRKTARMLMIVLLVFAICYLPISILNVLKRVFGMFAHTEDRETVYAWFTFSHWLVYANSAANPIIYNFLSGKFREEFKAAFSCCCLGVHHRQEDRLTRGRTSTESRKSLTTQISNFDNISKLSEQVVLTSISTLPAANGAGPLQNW
Assay: Measurement of orexin type 2 receptor agonist activity (calcium fluorescence, CHO cells expressing hOX2R)
Assay type: cell-based
Details: test compound 3 μM; CHO cells expressing human OX2 receptor; DMSO = 0%, orexin A (human) = 100%
Excerpt: To obtain a cell clone stably expressing human orexin type 2 receptor, human orexin type 2 receptor cDNA was inserted into pcDNA3.1(+) plasmid vector (Invitrogen), and a plasmid DNA for expression of human orexin type 2 receptor (pcDNA3.1(+)/hOX2R) was cloned. The plasmid DNA was introduced into CHO-dhfr cell by an electroporation method, and human orexin type 2 receptor expressing clone cells were obtained by limiting dilution method by using G418 drug resistance as a selection marker.
CHO cells forcibly expressing human OX2 receptor were seeded in each well of 384 well black transparent bottom plate (BD Falcon) at 7,500 cells/well, and cultured for one day in a 5% CO2 incubator at 37° C. After removal of the medium in the cell plate, assay buffer A containing a calcium indicator (HBSS (Thermo Fisher Scientific), 20 mM HEPES (Thermo Fisher Scientific), 0.1% BSA (Wako Pure Chemical Industries, Ltd. or Sigma-Aldrich), 2.5 μg/mL Fluo-4 AM (DOJINDO Chemical), 0.08% Pluronic F127 (DOJINDO Chemical), 1.25 mM probenecid (DOJINDO Chemical)) was added at 30 μL/well. The plate was stood for 30 min in a 5% CO2 incubator at 37° C., and further stood at room temperature for 30 min. A test compound prepared by diluting with assay buffer B (HBSS, 20 mM HEPES, 0.1% BSA) was added at 10 μL/well, and the fluorescence value was measured by FDSSμCELL (Hamamatsu Photonics K.K.) every one sec for 1 min, and thereafter every two sec for 1 min 40 sec. The activity (%) of the test compound was calculated assuming that variation in the fluorescence value when DMSO was added instead of the test compound was 0%, and variation in the fluorescence value when orexin A (human) (PEPTIDE INSTITUTE, INC.) was added at the final concentration of 10 nM was 100%.

Compound	OX2R agonist activity (3 μM, %)
CCNC(=O)N1CCC[C@H](NS(C)(=O)=O)[C@@H]1Cc1cccc(Cc2ccccc2)c1 (relative stereo) [Example 1, cis-2-(3-benzylbenzyl)-N-ethyl-3-((methylsulfonyl)amino)piperidine-1-carboxamide]	81%
CCNC(=O)N1CCC[C@H](NS(C)(=O)=O)[C@@H]1Cc1cccc(Cc2cccc(C)c2)c1 (relative stereo) [Example 2, cis-N-ethyl-2-(3-(3-methylbenzyl)benzyl)-3-((methylsulfonyl)amino)piperidine-1-carboxamide]	90%
CCNC(=O)N1CCC[C@H](NS(C)(=O)=O)[C@@H]1Cc1cccc(-c2ccccc2)c1 (relative stereo) [Example 3, cis-2-(biphenyl-3-ylmethyl)-N-ethyl-3-((methylsulfonyl)amino)piperidine-1-carboxamide]	101%
CCNC(=O)N1CCC[C@H](NS(C)(=O)=O)[C@@H]1Cc1cccc(OC2CCCCC2)c1 (relative stereo) [Example 7, cis-2-(3-(cyclohexyloxy)benzyl)-N-ethyl-3-((methylsulfonyl)amino)piperidine-1-carboxamide]	62%
CCNC(=O)N1CCC[C@H](NS(C)(=O)=O)[C@@H]1Cc1cccc(Oc2ccccc2)c1 (relative stereo) [Example 10, cis-N-ethyl-3-((methylsulfonyl)amino)-2-(3-phenoxybenzyl)piperidine-1-carboxamide]	91%
COC(=O)N1CCC[C@H](NS(C)(=O)=O)[C@@H]1Cc1cccc(-c2ccccc2)c1 (relative stereo) [Example 11, methyl cis-2-(biphenyl-3-ylmethyl)-3-((methylsulfonyl)amino)piperidine-1-carboxylate]	80%
COC(=O)N1CCC[C@H](NS(C)(=O)=O)[C@@H]1Cc1cccc(-c2cccc(F)c2)c1 (relative stereo) [Example 14, methyl cis-2-((3′-fluorobiphenyl-3-yl)methyl)-3-((methylsulfonyl)amino)piperidine-1-carboxylate]	82%
CCNC(=O)N1CCC[C@H](NS(C)(=O)=O)[C@@H]1Cc1cccc(O[Si](C(C)C)(C(C)C)C(C)C)c1 (relative stereo) [Example 17, cis-N-ethyl-3-((methylsulfonyl)amino)-2-(3-((triisopropylsilyl)oxy)benzyl)piperidine-1-carboxamide]	29%
CC(=O)N1CCC[C@H](NS(C)(=O)=O)[C@@H]1Cc1cccc(-c2ccccc2)c1 (relative stereo) [Example 22, N-(cis-1-acetyl-2-(biphenyl-3-ylmethyl)piperidin-3-yl)methanesulfonamide]	60%
COC(=O)N1CCC[C@H](NS(C)(=O)=O)[C@@H]1Cc1cccc(N2CCCC2)c1 (relative stereo) [Example 27, methyl cis-3-((methylsulfonyl)amino)-2-(3-(pyrrolidin-1-yl)benzyl)piperidine-1-carboxylate]	66%
CCOC(=O)N1CCC[C@H](NS(C)(=O)=O)[C@@H]1Cc1cccc(-c2ccccc2)c1 (relative stereo) [Example 29, ethyl cis-2-(biphenyl-3-ylmethyl)-3-((methylsulfonyl)amino)piperidine-1-carboxylate]	98%
CCNC(=O)N1CCC[C@H](NS(C)(=O)=O)[C@@H]1Cc1cccc(-c2ccc(C(F)(F)F)cc2)c1 (relative stereo) [Example 35, cis-N-ethyl-3-((methylsulfonyl)amino)-2-((4′-(trifluoromethyl)biphenyl-3-yl)methyl)piperidine-1-carboxamide]	41%
CCOC(=O)N1CCC[C@H](NS(C)(=O)=O)[C@@H]1Cc1cccc(-c2ccccc2)n1 (relative stereo) [Example 38, ethyl cis-3-((methylsulfonyl)amino)-2-((6-phenylpyridin-2-yl)methyl)piperidine-1-carboxylate]	75%
